In US20240182867A1, “CHEMICAL REPROGRAMMING OF HUMAN SOMATIC CELLS INTO PLURIPOTENT CELLS” (Peking University, priority 2021, published 2024):
Where a name gives a salt, the structure may show the parent alone.

Columns and labels:
human somatic cells [1] = assay: Replacement of small molecules by others targeting the same pathway; format: cell-based; details: for replacement of IWP-2: Wnt inhibitor; for replacement of ABT 869: receptor tyrosine kinase inhibitor
Procedure: VPA (500 μM), Tranylcypromine (10 μM), DZNep (0.05 μM), and EPZ004777 (5 μM) were included in the first 4 days. In several experiments, to testing the reprogramming efficiency after removing each small molecules, the indicated small molecules were removed from the cocktails.

human fibroblasts = assay: Conversion of human fibroblasts into monolayer epithelial-like cells; format: cell-based; details: added into the combination CHIR99021, 616452 and TTNPB
Procedure: KnockOut™ DMEM (Gibco, 10829018) supplemented with 10% Knockout Serum Replacement (KSR) (Gibco, 10828028), 10% FBS, 1% GlutaMAX™, 1% NEAA, 1% Penicillin-Streptomycin, 0.055 mM 2-mercaptoethanol, 50 μg/ml L-Ascorbic acid 2-phosphate (Vc2P) (Sigma, A8960), 5 mM LiCl (Sigma, L4408), 1 mM Nicotinamide (NAM) (Sigma, 72340), 2 mg/mL AlbuMAX™-II (Gibco, 11021045) and the small molecules CHIR999021 (10 μM), 616452 (10 μM), TTNPB (2 μM), SAG (0.5 μM), ABT-869 (1 μM), Rock inhibitor (Y-27632 (2 μM) or Tzv (2 μM))
(§1) Cells were maintained at 37° C. with 21% 02 and 5% CO2. The induction medium was changed every 3-4 days. HEFs were seeded at a density of 1-1.5×10^4 cells per well of a 12-well plate in 15%. FBS-DMEM medium. Change the medium into stage I induction medium on the next day. For stage I induction, single layer epithelial-like cells would emerge at day 4-6 and approach 80%-100% confluence at day 8-12, then change the medium into stage II induction medium. For stage II induction, multi-layered colonies appeared after 8-12 days treatment and these cell colonies would continually grow larger. After totally 16-20 days' stage II treatment, change the medium into stage III condition. For stage III induction, 8-12 days treatment of stage III medium is required and then change the medium into stage IV condition. For stage IV induction, VPA (500 μM) was included in the first 4 days. Primary hCiPSC colonies would emerge after 6-8 days' treatment. At the end of stage IV, immunofluorescent staining of co-expression of OCT4 and NANOG was used to confirm the generation of primary hCiPSC colonies. Primary hCiPSC colony number was calculated as the number of the compact OCT4 positive colonies. Reprogramming efficiency was calculated as the number of primary hCiPSC colonies divided by the number of input HEFs.

human somatic cells [2] = assay: Reprogramming efficiency with supplemental inhibitors; format: cell-based; details: inhibitor added to induction medium
Procedure: KnockOut™ DMEM supplemented with 10% KSR, 10% FBS, 1% GlutaMAX™, 1% NEAA, 0.055 mM 2-mercaptoethanol, 1% Penicillin-Streptomycin, 50 μg/ml Vc2p, 5 mM LiCl, 1 mM NAM, 100 ng/ml bFGF (Origene) and the small molecules CHIR99021 (10-12 μM), 616452 (10 μM), TTNPB (2 μM), SAG (0.5 μM), ABT-869 (1 μM), Y-27632 (10 μM), JNKIN8 (1 μM), Tranylcypromine (2 μM), 5-Azacytidine (5 μM), UNC0224 (1 μM), Ruxolitinib (1 μM), BIRB796 (2 μM), Dorsormorphin (0.5-1 μM). To enhance the reprogramming efficiency, the CBP/p300 bromodomain inhibitor SGC-CBP30 (2 μM) and Menin-MLL interaction inhibitor VTP50469 were introduced in stage II induction medium.
In several experiments, to testing the reprogramming efficiency after regulate each small molecules, the indicated small molecules were removed from the cocktails. The concentration of the small molecules used to targeting the same pathway or targets were indicated as follow: GSK3 inhibitors (CHIR99021: 3-15 μM; TD114-2: 0.5-2 μM; CHIR98014: 1-3 μM; GSK3βi XV: 0.05-0.2 μM); TGFβ inhibitors (A8301: 0.2-5 μM; SB431542: 2-50 μM; 616452: 10 μM); RA pathway agonists (TTNPB: 0.2-10 μM; Ch55: 1-10 μM; AM580: 0.1-1 μM); Rock inhibitors (Y27632: 2-15 μM; Fasudil: 2-10 μM; HA1100: 2-10 μM; TZV: 2-10 μM); Smoothened agonists (SAG: 0.2-2 μM; Purmorphamine: 0.5-2 μM; Hg-Ag1.5: 0.5-1 μM; Human shh: 20-200 μM); histone demethylation inhibitors (Tranylcypromine: 2-50 μM; GSK2879: 0.02-2 μM; LSD-C76: 0.2-5 μM; S2101: 0.5-5 μM; LSD-2D: 0.2-5 μM; RN-1: 0.2-5 μM); DNMT inhibitors (5-azaC: 2-15 μM; Decitabine: 0.5-10 μM; RG108: 0.5-10 μM); JNK inhibitors (JNK-in-8: 0.2-2 μM; JNK-in-5: 0.5-1 μM; JNK-in-7: 0.2-2 μM; JNK-in-12: 0.2-0.5 μM); CBP/p300 bromodomain inhibitor (SGC-CBP30: 0.5-2 μM; I-CBP112: 0.5-5 μM; GNE272: 0.5-5μM; GNE409:0.5-5μM); Menin-MLL interaction inhibitor (VTP50469: 0.5-2μM; MI3454: 0.5-2μM; WDR5-IN-4: 0.5-2μM). […]

LIN28A = assay: Withdrawing individual chemicals from stage I: LIN28A expression; format: cell-based, human; details: compound removed from stage I condition
Procedure: (§2) In several experiments, to testing the reprogramming efficiency after removing each small molecules, the indicated small molecules were removed from the cocktails. The concentration of the small molecules used to regulate the same pathway or targets were indicated as follow: GSK3 inhibitors (CHIR99021: 3-15 μM; TD114-2: 0.5-2 μM; CHIR98014: 1-3 μM; GSK3βi XV: 0.05-0.2 μM); RA pathway agonists (TTNPB: 0.5-10 μM; […] AM580: 0.1-1 μM); Rock inhibitors (TZV: 2-10 μM; Y27632: 2-15 μM; Fasudil: 2-10 μM; HA1100: 2-10 μM); TGFβ inhibitors ([…]: 0.1-5 μM; SB431542: 2-50 μM; LY364947: 0.5 μM; LY21: 0.5 μM; 616452: 10 μM). […] The data were analyzed using the delta-delta Ct method. GAPDH was used as a control to normalize the expression of target genes.

[3] = system: fibroblast marker genes (somatic program); assay: Withdrawing individual chemicals from stage I: fibroblast marker genes; format: cell-based, human; details: compound removed from stage I condition
Procedure: as §2

human somatic cells [4] = assay: hCiPSC colonies at the end of reprogramming after withdrawing individual chemicals from stage I or II; format: cell-based; details: factor removed
Procedure: as §1
In several experiments, to testing the reprogramming efficiency after removing each small molecules, the indicated small molecules were removed from the cocktails. The concentration of the small molecules used to regulate the same pathway or targets were indicated as follow: GSK3 inhibitors (CHIR99021: 3-15 μM; TD114-2: 0.5-2 μM; CHIR98014: 1-3 μM; GSK3βi XV: 0.05-0.2 μM); RA pathway agonists (TTNPB: 0.5-10 μM; Ch55: 1-5 μM; AM580: 0.1-1 μM); Rock inhibitors (TZV: 2-10 μM; Y27632: 2-15 μM; Fasudil: 2-10 μM; HA1100: 2-10 μM); TGFβ inhibitors (A8301: 0.1-5 μM; SB431542: 2-50 μM; LY364947: 0.5 μM; LY21: 0.5 μM; 616452: 10 μM).
In several experiments, to testing the reprogramming efficiency after regulate each small molecules, the indicated small molecules were removed from the cocktails. The concentration of the small molecules used to targeting the same pathway or targets were indicated as follow: GSK3 inhibitors (CHIR99021: 3-15 μM; TD114-2: 0.5-2 μM; CHIR98014: 1-3 μM; GSK3βi XV: 0.05-0.2 μM); TGFβ inhibitors (A8301: 0.2-5 μM; SB431542: 2-50 μM; 616452: 10 μM); RA pathway agonists (TTNPB: 0.2-10 μM; Ch55: 1-10 μM; AM580: 0.1-1 μM); Rock inhibitors (Y27632: 2-15 μM; Fasudil: 2-10 μM; HA1100: 2-10 μM; TZV: 2-10 μM); Smoothened agonists (SAG: 0.2-2 μM; Purmorphamine: 0.5-2 μM; Hg-Ag1.5: 0.5-1 μM; Human shh: 20-200 μM); histone demethylation inhibitors (Tranylcypromine: 2-50 μM; GSK2879: 0.02-2 μM; LSD-C76: 0.2-5 μM; S2101: 0.5-5 μM; LSD-2D: 0.2-5 μM; RN-1: 0.2-5 μM); DNMT inhibitors (5-azaC: 2-15 μM; Decitabine: 0.5-10 μM; RG108: 0.5-10 μM); JNK inhibitors (JNK-in-8: 0.2-2 μM; JNK-in-5: 0.5-1 μM; JNK-in-7: 0.2-2 μM; JNK-in-12: 0.2-0.5 μM); CBP/p300 bromodomain inhibitor (SGC-CBP30: 0.5-2 μM; I-CBP112: 0.5-5 μM; GNE272: 0.5-5μM; GNE409:0.5-5μM); Menin-MLL interaction inhibitor (VTP50469: 0.5-2μM; MI3454: 0.5-2μM; WDR5-IN-4: 0.5-2μM).

O=C(Nc1cccc2cccnc12)c1ccc(N2C(=O)[C@@H]3[C@H](C2=O)[C@@H]2C=C[C@H]3C2)cc1 [IWR-1]
replacement of IWP-2 (human somatic cells [1]): able to replace IWP-2

C[C@@H](N)[C@H]1CC[C@H](C(=O)Nc2ccncc2)CC1 [Y27632, (+)-(R)-trans-4-(1-aminoethyl)-N-(4-pyridyl)cyclohexanecarboxamide+++dihydrochloride]
generation of the epithelial-like cells (human fibroblasts): can facilitate

CNC1CCC(N(Cc2cccc(-c3ccncc3)c2)C(=O)c2sc3ccccc3c2Cl)CC1 (centres unmarked) [SAG]
generation of the epithelial-like cells (human fibroblasts): can facilitate

COc1ccc(CCc2nc3cc(-c4c(C)noc4C)ccc3n2C[C@H](C)N2CCOCC2)cc1Cl [SGC-CBP30, 2-[2-(3-chloro-4-methoxyphenyl)ethyl]-5-(3,5-dimethyl-4-isoxazolyl)-1-[(2S)-2-(4-morpholinyl)propyl]-1H-benzimidazole]
reprogramming efficiency (human somatic cells [2]): can improve

C/C(=C\c1ccc(C(=O)O)cc1)c1ccc2c(c1)C(C)(C)CCC2(C)C [TTNPB, 4-[(E)-2-(5,6,7,8-Tetrahydro-5,5,8,8-tetramethyl-2-naphthalenyl)-1-propenyl]benzoic acid]
LIN28A activation (LIN28A): severely reduced | downregulation of the somatic program [3]: inhibited | generation of hCiPSCs (human somatic cells [4]): greatly impaired

Cc1cc(-c2ccc(CC(=O)Nc3ccc(-c4cccnc4)cc3)cc2)ccn1 [WNT-C59, 4-(2-Methyl-4-pyridinyl)-N-[4-(3-pyridinyl)phenyl]benzeneacetamide]
replacement of IWP-2 (human somatic cells [1]): able to replace IWP-2

COc1cc2ncc(-c3ccccc3)nc2cc1OC [AG1296, 6,7-Dimethoxy-3-phenylquinoxaline]
replacement of ABT 869 (human somatic cells [1]): able to replace ABT 869

Cc1cnc(-c2cnc(NCCNc3ccc(C#N)cn3)nc2-c2ccc(Cl)cc2Cl)[nH]1 [CHIR99021, 6-[[2-[[4-(2,4-Dichlorophenyl)-5-(5-methyl-1H-imidazol-2-yl)-2-pyrimidinyl]amino]ethyl]amino]-3-pyridinecarbonitrile]
LIN28A activation (LIN28A): severely reduced | downregulation of the somatic program [3]: inhibited | generation of hCiPSCs (human somatic cells [4]): greatly impaired

Cc1cccc(-c2n[nH]cc2-c2ccc3ncccc3n2)n1 [compound 616452, 2-(3-(6-Methylpyridin-2-yl)-1H-pyrazol-4-yl)-1,5-naphthyridine]
LIN28A activation (LIN28A): severely reduced | downregulation of the somatic program [3]: inhibited | generation of hCiPSCs (human somatic cells [4]): greatly impaired

CCC(=O)N1CCOc2c(cc(-c3ccc(OC)c(OC)c3)cc2OC[C@H]2CCCN(C)C2)C1 [I-CBP112]
reprogramming efficiency (human somatic cells [2]): can improve

Clc1ccc(Nc2nnc(Cc3ccncc3)c3ccccc23)cc1 [Valatanib]
replacement of ABT 869 (human somatic cells [1]): able to replace ABT 869

Cc1ccc(F)c(NC(=O)Nc2ccc(-c3cccc4[nH]nc(N)c34)cc2)c1 [ABT869, N-[4-(3-amino-1H-indazol-4-yl)phenyl]-N′-(2-fluoro-5-methylphenyl)-urea]
generation of the epithelial-like cells (human fibroblasts): can facilitate

O=c1[nH]c(-c2ccc(C(F)(F)F)cc2)nc2c1CSCC2 [XAV-939, 3,5,7,8-Tetrahydro-2-[4-(trifluoromethyl)phenyl]-4H-thiopyrano[4,3-d]pyrimidin-4-one]
replacement of IWP-2 (human somatic cells [1]): able to replace IWP-2

CC(=O)N1CCc2c(c(Nc3ccc(-c4cnn(C)c4)cc3F)nn2[C@H]2CCOC2)C1 [GNE272]
reprogramming efficiency (human somatic cells [2]): can improve
